From patent US12678453B2, “Aerosolized formulations of HIV protease inhibitors for the treatment of airway reflux” (The Medical College of Wisconsin, Inc., priority 2020, dated 2026)

Experiments:
[1] = biological target: T1, porcine pepsin A (Sus scrofa, UniProt P00791); experiment: co-crystallization of inhibitors with pepsin; assay type: binding; settings: crystal structures of porcine pepsin complexes
T1 construct: purchased Worthington Biochemical Corporation
Description: Lyophilized porcine pepsin A (Worthington Biochemical Corporation) was dissolved in water at 200 mg/mL. All ligand stock solutions, except for saquinavir mesylate, were prepared as saturated solutions in DMSO in order to dissolve the maximal amount of ligand. The solutions were centrifuged and an appropriate volume of the supernatant was added to the pepsin solution so that final mixture contained 1.6% of the ligand stock by volume. The mixtures were incubated at room temperature for 1 h, centrifuged for 10 min at 31,000 rcf, and the supernatant was used for crystallization experiments. […] In order to maximize the solubility of saquinavir in the crystallization solution, we tested solutions from the CryoSol screen (Molecular Dimensions) (PMID 28626721). Mixture SM2 consisting of 37.5% v/v dioxane, 25% v/v DMSO, 12.5% v/v ethylene glycol, 12.5% v/v 1,2-propanediol, and 12.5% v/v glycerol allowed us to increase the amount of ligand solution in the co-crystallization mixture without damaging the protein. The saturated solution of saquinavir in SM2 was treated in the same manner as solutions of other ligands except that its amount in the solution with pepsin was increased to 5% by volume.
The initial crystallization condition was identified by screening 200 mg/mL ligand-free porcine pepsin against the Salt RX screen (Hampton Research). Small bipyramid-shaped crystals were obtained in 3.5 M ammonium chloride and 0.1 M sodium acetate trihydrate pH 4.6 after 1 week of incubation at room temperature. […] Diffraction quality crystals formed after 2-7 days from hanging drops containing 2 μL of pepsin at concentrations of 180-210 mg/mL and 1 μL of a microseed solution serially diluted 10-100× above a well solution containing 3 M-4 M ammonium chloride and 0.1 M sodium acetate trihydrate pH 4.6. The crystals were shaped as triangular bi-pyramids with dimensions approximately 200×100×100 μm. Crystals were cryoprotected by soaking them in 30% w/v glucose, 5 M ammonium chloride and 0.1 M sodium acetate trihydrate pH 4.6 and then plunging them in liquid nitrogen.
The complex with saquinavir was crystallized in the same manner except that we used 0.1 M acetic acid instead of 0.1 M sodium acetate trihydrate pH 4.6 because this change allowed us to grow large crystals without the need for a microseeding solution. Cryoprotection was accomplished using 30% w/v glucose, 3 M ammonium chloride and 0.1 M acetic acid, followed by plunging in liquid nitrogen.
Pepsin·APV: A 1.9 Å diffraction data set was collected at the Life Sciences Collaborative Access Team beamline (LS-CAT) 21-ID-F at the Advanced Photon Source (APS) equipped with a MAR 300 CCD detector using a 50×50 μm beam at a wavelength of 0.97872 Å. […]

[2] = known clinical profile; cited from earlier work

T1 sequence (P00791 60-385): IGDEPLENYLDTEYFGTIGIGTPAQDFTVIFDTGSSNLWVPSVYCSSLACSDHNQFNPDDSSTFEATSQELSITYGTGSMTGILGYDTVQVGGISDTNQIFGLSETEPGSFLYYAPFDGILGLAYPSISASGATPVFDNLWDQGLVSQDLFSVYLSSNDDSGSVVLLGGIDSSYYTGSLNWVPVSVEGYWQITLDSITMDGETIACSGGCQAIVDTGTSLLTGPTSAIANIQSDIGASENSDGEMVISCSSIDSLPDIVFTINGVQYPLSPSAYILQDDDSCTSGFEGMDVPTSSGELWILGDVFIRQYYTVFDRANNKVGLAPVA

| Compound | binding at the active site of pepsin by co-crystallization [1] | side effects / tolerability [2] |
| --- | --- | --- |
| CC(C)CN(C[C@@H](O)[C@H](Cc1ccccc1)NC(=O)O[C@H]1CO[C@H]2OCC[C@H]21)S(=O)(=O)c1ccc(N)cc1 [darunavir, [(3a S,4R,6aR)-2,3,3a,4,5,6a-hexahydrofuro[2,3-b]furan-4-yl] N-[(2S,3R)-4-[(4-aminophenyl)sulfonyl-(2-methylpropyl)amino]-3-hydroxy-1-phenylbutan-2-yl]carbamate] | bind at the active site of pepsin |  |
| CC(C)c1nc(CN(C)C(=O)N[C@H](C(=O)N[C@@H](Cc2ccccc2)C[C@H](O)[C@H](Cc2ccccc2)NC(=O)OCc2cncs2)C(C)C)cs1 [ritonavir, 1,3-thiazol-5-ylmethyl N-[(2S,3 S,5S)-3-hydroxy-5-[[(2S)-3-methyl-2-[[methyl-[(2-propan-2-yl-1,3-thiazol-4-yl)methyl]carbamoyl]amino]butanoyl]amino]-1,6-diphenylhexan-2-yl]carbamate] | bind at the active site of pepsin | minimal side effects such as diarrhea, nausea and vomiting |
| CC(C)CN(C[C@@H](O)[C@H](Cc1ccccc1)NC(=O)O[C@H]1CCOC1)S(=O)(=O)c1ccc(N)cc1 [amprenavir, [(3S)-oxolan-3-yl] N-[(2S,3R)-4-[(4-aminophenyl)sulfonyl-(2-methylpropyl)amino]-3-hydroxy-1-phenylbutan-2-yl]carbamate] | bind in the pepsin active site | minimal side effects such as diarrhea, nausea and vomiting |
| CC(C)(C)NC(=O)[C@@H]1C[C@@H]2CCCC[C@@H]2CN1C[C@@H](O)[C@H](Cc1ccccc1)NC(=O)[C@H](CC(N)=O)NC(=O)c1ccc2ccccc2n1 [saquinavir, (2S)—N-[(2S,3R)-4-[(3 S,4aS,8aS)-3-(tert-butylcarbamoyl)-3,4,4a,5,6,7,8,8a-octahydro-1H-isoquinolin-2-yl]-3-hydroxy-1-phenylbutan-2-yl]-2-(quinoline-2-carbonylamino)butanediamide] | bind at the active site of pepsin | can cause QT prolongation, heart block, high blood lipids, and liver problems |
